From the supplement of paper PMC11208160 come the findings set out here.
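Note: IS621 recombinase and bridge RNA in Escherichia coli cells.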

A short description of this series: recombinant barcode read abundance after kanamycin selection (control-corrected) (log10(CPM+1)); higher = more efficient recombination; sequences stand for … in AGTGCAGAGAAAATCGGCCAGTTTTCTCTGCCTGCAGTCCGCATGCCGT…AGATTTATGCAGCGGACTGCCTTTCTCCCAAAGTGATAAACCGGACAGTATCATGGACCGGTTTTCCCGGTAATCCGTATTTGCAAGGTTGGTTTCACT; site = the 11-nt target. A digest of the protocol: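 In E. coli, a pooled library matched targets to IS621 bridge RNA target-binding loops and was introduced alongside a donor plasmid. Cells went onto chloramphenicol/ampicillin/kanamycin with 0.1 mM IPTG or onto chloramphenicol/ampicillin LB agar as control, in duplicate. Recombination efficiency, from recombinant-junction barcodes as counts per million, is averaged and control-corrected. It is reported as log10(CPM+1).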
As to “CAAGGGCCTTGGGTTCTAACCTGTTGCCT (site CAAAGGCCTAG)”, the “recombinant barcode read abundance (log10)” value worked out at 0.423.
Next, “CAAGGGCCTTGGGTTCTAACCTGTTGCCT (site CAACGGCCTAG)”: 0.0504; “CAAGGGCCTTGGGTTCTAACCTGTTGCCT (site CAAGGGCCTAG)”: 0.701; “CAAGGGCCTTGGGTTCTAACCTGTTGCCT (site CAATGGCCTAG)”: 0.375.
Next, “CAAGTAGCTTGGGTTCTAACCTGTTGCCT (site CAAGTAGCTAG)”: 0.591.
The value for “CAAGTAGCTTGGGTTCTAACCTGTTGCCT (site CAAGTCGCTAG)” was 0.123; that for “CAAGTAGCTTGGGTTCTAACCTGTTGCCT (site CAAGTGGCTAG)” was 0.183; that for “CAAGTAGCTTGGGTTCTAACCTGTTGCCT (site CAAGTTGCTAG)” was 0.0368.
“CAATAGACTTGGGTTCTAACCTGTTGCCT (site CAATAGACTAG)”: the “recombinant barcode read abundance (log10)” value was found to be 1.19.
Regarding “CAATAGACTTGGGTTCTAACCTGTTGCCT (site TGCACCTCTTA)”, the “recombinant barcode read abundance (log10)” value is 0.0564.
Next, “CAATCACCTTGGGTTCTAACCTGTTGCTT (site CAAACACCTAA)”: 0.109; “CAATCACCTTGGGTTCTAACCTGTTGCTT (site CAACCACCTAA)”: 0.461; “CAATCACCTTGGGTTCTAACCTGTTGCTT (site CAAGCACCTAA)”: 0.027.
The value for “CAATCACCTTGGGTTCTAACCTGTTGCTT (site CAATCACCTAA)” was 0.794.
Next, “CAATCCTCTTGGGTTCTAACCTGTTGCTT (site CAATCCTCTAA)”: 0.664; “CAATCCTCTTGGGTTCTAACCTGTTGCTT (site CCATCCTCTAA)”: 0; “CAATCGTCTTGGGTTCTAACCTGTTGCGG (site CAATCGTCTCC)”: 1.68.
Consider “CAATCGTCTTGGGTTCTAACCTGTTGCGG (site CAGCCGTCTCC)”, for which the “recombinant barcode read abundance (log10)” value is 0.166.
The value for “CAATGGTCTTGGGTTCTAACCTGTTGCAT (site CAATGGTCTAA)” was 0.409; that for “CAATGGTCTTGGGTTCTAACCTGTTGCAT (site CAATGGTCTAC)” was 0.476; that for “CAATGGTCTTGGGTTCTAACCTGTTGCAT (site CAATGGTCTAG)” was 0.54.
Next, “CAATGGTCTTGGGTTCTAACCTGTTGCAT (site CAATGGTCTAT)”: 2.71; “CAATTGTCTTGGGTTCTAACCTGTTGCGT (site CAATTGTCTAC)”: 3.47.
The value for “CAATTGTCTTGGGTTCTAACCTGTTGCGT (site TAATTGTCTAC)” was 0.151; that for “CACAAGTCTTGGGTTCTAACCTGTTGCTT (site CACAAGTCTAA)” was 0.474.
As for “CACAAGTCTTGGGTTCTAACCTGTTGCTT (site CGCACGTCTAA)”, the “recombinant barcode read abundance (log10)” value stood at 0.0654.
For “CACAATACTTGGGTTCTAACCTGTTGCCT (site CACAATACTAG)”, the “recombinant barcode read abundance (log10)” value amounted to 1.03.
The value for “CACAATACTTGGGTTCTAACCTGTTGCCT (site GCATGACCTCT)” was 0.00751; that for “CACACAGCTTGGGTTCTAACCTGTTGCCT (site CACAAAGCTAG)” was 0.082.
The value for “CACACAGCTTGGGTTCTAACCTGTTGCCT (site CACACAGCTAG)” was 0.559; that for “CACAGGGCTTGGGTTCTAACCTGTTGCGG (site CACAGGGCTCC)” was 2.39; that for “CACAGGGCTTGGGTTCTAACCTGTTGCGG (site CACATGGCTCG)” was 0.344.
The value for “CACATCTCTTGGGTTCTAACCTGTTGCCT (site CACATATCTAT)” was 0.0495; that for “CACATCTCTTGGGTTCTAACCTGTTGCCT (site CACATCTCTAG)” was 1.38; that for “CACATTCCTTGGGTTCTAACCTGTTGCCT (site AACATTCCTAG)” was 0.158.
For “CACATTCCTTGGGTTCTAACCTGTTGCCT (site CACATTCCTAG)”, the “recombinant barcode read abundance (log10)” value turned out to be 0.17.
The value for “CACATTCCTTGGGTTCTAACCTGTTGCCT (site GACATTCCTAG)” was 0.141.
The value for “CACATTCCTTGGGTTCTAACCTGTTGCCT (site TACATTCCTAG)” was 0.06; that for “CACCACTCTTGGGTTCTAACCTGTTGCCT (site AACCACTCTAG)” was 0.545.
In the case of “CACCACTCTTGGGTTCTAACCTGTTGCCT (site CACCACTCTAG)”, the “recombinant barcode read abundance (log10)” value worked out at 1.56.
Next, “CACCACTCTTGGGTTCTAACCTGTTGCCT (site GACCACTCTAG)”: 0.108; “CACCACTCTTGGGTTCTAACCTGTTGCCT (site TACCACTCTAG)”: 0.195; “CACCGTTCTTGGGTTCTAACCTGTTGCTT (site CACCGTTCTAA)”: 0.552.
The value for “CACCGTTCTTGGGTTCTAACCTGTTGCTT (site CATCGCTCTAA)” was 0.0503.
The value for “CACGAGACTTGGGTTCTAACCTGTTGCCT (site CACGAGACTAG)” was 2.05; that for “CACGAGACTTGGGTTCTAACCTGTTGCCT (site CACGAGCCTAG)” was 0.0856.
On to “CACGAGACTTGGGTTCTAACCTGTTGCCT (site CACGAGGCTAG)”, for which the “recombinant barcode read abundance (log10)” value was 1.02.
For “CACGAGACTTGGGTTCTAACCTGTTGCCT (site CACGAGTCTAG)”, the “recombinant barcode read abundance (log10)” value amounted to 0.424.
For the sequence “CACGAGTCTTGGGTTCTAACCTGTTGCCT (site CACGAGACTAG)”, the “recombinant barcode read abundance (log10)” value came to 0.0562.
“CACGAGTCTTGGGTTCTAACCTGTTGCCT (site CACGAGCCTAG)”: the “recombinant barcode read abundance (log10)” value worked out at 0.24.
The value for “CACGAGTCTTGGGTTCTAACCTGTTGCCT (site CACGAGGCTAG)” was 0.109.
Next, “CACGAGTCTTGGGTTCTAACCTGTTGCCT (site CACGAGTCTAG)”: 1.57; “CACGCCTCTTGGGTTCTAACCTGTTGCCT (site AACGCCTCTAG)”: 0.116.
Next, “CACGCCTCTTGGGTTCTAACCTGTTGCCT (site CACGCCTCTAG)”: 1.88.
With “CACGCCTCTTGGGTTCTAACCTGTTGCCT (site GACGCCTCTAG)”, the “recombinant barcode read abundance (log10)” value is 0.385.
Next, “CACGCCTCTTGGGTTCTAACCTGTTGCCT (site TACGCCTCTAG)”: 0.0712; “CACGCGCCTTGGGTTCTAACCTGTTGCGG (site CACGCGCCTCC)”: 1.84; “CACGCGCCTTGGGTTCTAACCTGTTGCGG (site GCTCATACTAG)”: 0.00629.
For “CACGGGACTTGGGTTCTAACCTGTTGCAG (site CACGGGACTCT)”, the “recombinant barcode read abundance (log10)” value was determined as 2.58.
Next, “CACGGGACTTGGGTTCTAACCTGTTGCAG (site TCGAACGCTAA)”: 0.111; “CACGGGGCTTGGGTTCTAACCTGTTGCCT (site ATGCTACCTCC)”: 0.0666.
In the case of “CACGGGGCTTGGGTTCTAACCTGTTGCCT (site CACGGGGCTAG)”, the “recombinant barcode read abundance (log10)” value amounted to 0.697.
Next, “CACGGTCCTTGGGTTCTAACCTGTTGCCA (site ATGCTATCTCT)”: 0.0164.
Next, “CACGGTCCTTGGGTTCTAACCTGTTGCCA (site CACGGTCCTTG)”: 1.31; “CACGGTCCTTGGGTTCTAACCTGTTGCGG (site AACGCTCCTCC)”: 0.0287.
Next, “CACGGTCCTTGGGTTCTAACCTGTTGCGG (site CACGGTCCTCC)”: 3.16; “CACGTTACTTGGGTTCTAACCTGTTGCCT (site CACGGAACTAG)”: 0.0559; “CACGTTACTTGGGTTCTAACCTGTTGCCT (site CACGTTACTAG)”: 0.628.
For the sequence “CACTAGCCTTGGGTTCTAACCTGTTGCGG (site CACTAGCCTCC)”, the “recombinant barcode read abundance (log10)” value turned out to be 2.41.
The value for “CACTAGCCTTGGGTTCTAACCTGTTGCGG (site CACTATCCTCC)” was 0.133.
Next, “CACTGCTCTTGGGTTCTAACCTGTTGCCT (site CACTGATCTAG)”: 0.2; “CACTGCTCTTGGGTTCTAACCTGTTGCCT (site CACTGCTCTAG)”: 1.58.
The value for “CACTGCTCTTGGGTTCTAACCTGTTGCCT (site CACTGGTCTAG)” was 0.151; that for “CACTGCTCTTGGGTTCTAACCTGTTGCCT (site CACTGTTCTAG)” was 0.173; that for “CACTGGACTTGGGTTCTAACCTGTTGCCT (site CAATGGACTAG)” was 0.155.
As for “CACTGGACTTGGGTTCTAACCTGTTGCCT (site CACTGGACTAG)”, the “recombinant barcode read abundance (log10)” value turned out to be 1.04.
Next, “CACTGGACTTGGGTTCTAACCTGTTGCCT (site CAGTGGACTAG)”: 0.42.
